What is called solubility is how much of the substance goes into solution per volume. What is called ED50 is the dose at which the effect has come halfway, by size or by number of responders. As usually defined, the IC50 is the point on the concentration scale where inhibition reaches its midpoint.

Converted amounts (≈) assume the structure as drawn.

The nature of series [1]: Aqueous solubility was determined. It counts as physicochemical.
Series [2] concerns Rattus norvegicus. The experiment in a line: Compound was evaluated ex vivo for inhibition of LTB4 production in rat air pouch inflammatory exudate at 3 hr after peroral administration. The format is functional. Particulars: po.
For series [3], the species on record is Homo sapiens. The series is described as follows: In vitro inhibition of LTB4 production in human blood. The format is functional.

For `COC1(C(=N)/C=C(\O)OCc2ccc3c(c2)OCC(=O)N3C)CCOCC1`, in series [1], the solubility is 25 µM (≈ 9.41 µg/mL). This molecule came in with an ED50 in series [2] of 5 mg/kg. The molecule also had an IC50 in series [3] of 60 nM.

In series [1], `COC1(C(=N)/C=C(\O)OCc2ccc3ccccc3c2)CCOCC1` returned a solubility of 50 µM (≈ 17.1 µg/mL). Moreover, in series [2], the ED50 is greater than 5 mg/kg. The same molecule gave a 50% inhibitory concentration (IC50) in series [3] of 70 nM.

Take `COC1(/C=C/C(=O)OCc2ccc3c(ccc(=O)n3C)c2)CCOCC1`: the ED50 in series [2] is greater than 5 mg/kg. This molecule returned an IC50 in series [3] of 1700 nM.

Molecule `COC1(c2cc(F)cc(OCc3ccc4c(ccc(=O)n4C)c3)c2)CCOCC1` [ZD-2138] registered a solubility in series [1] of 3.8 µM (≈ 1.51 µg/mL). This molecule had an ED50 in series [2] of 0.3 mg/kg.

Molecule `COC1(/C=C/COCc2ccc3c(ccc(=O)n3C)c2)CCOCC1` yielded a median effective dose (ED50) in series [2] greater than 5 mg/kg. In series [3], it took 500 nM to reach half-maximal inhibition (IC50).

`CO/C(=C\C(=O)OCc1ccc2c(ccc(=O)n2C)c1)C1(OC)CCOCC1` showed an ED50 in series [2] greater than 5 mg/kg. This molecule also displayed an IC50 in series [3] of 2600 nM.

In series [2], `COC1(C(=O)CC(=O)OCc2ccc3c(ccc(=O)n3C)c2)CCOCC1` showed an ED50 greater than 5 mg/kg. The IC50 in series [3] is greater than 10000 nM.

In turn, `COC1(C(=N)/C=C(\O)OCc2ccc3c(ccc(=O)n3C)c2)CCOCC1` returned a solubility in series [1] of 150 µM (≈ 55.9 µg/mL). The ED50 in series [2] came out at 3 mg/kg. Moreover, the IC50 in series [3] was determined as 40 nM.

In turn, `COC1(/C(C)=C/C(=O)OCc2ccc3c(ccc(=O)n3C)c2)CCOCC1` displayed a median effective dose (ED50) in series [2] greater than 5 mg/kg. Half-maximal inhibition in series [3] (IC50) was put at 2100 nM.

Source of the values: ChEMBL document CHEMBL1153693, “Inhibitors of leukotriene B4. Synthesis and sar of new -enaminoester open-chain analogues of zeneca ZD2138” (Bioorg Med Chem Lett, 1996).
